ChEMBL document CHEMBL3885861, “Open TG-GATES”

Organism: Rattus norvegicus
Assay: Open TG-GATES - Regimen: Single
Type: toxicity, organism-based, Sprague-Dawley
Set-up: regimen Single, gender Male, age 6 weeks
Settings: in vivo, po, 100 mg/kg, route gavage, dose level Middle; for KIDNEY_L / KIDNEY_R / KIDNEY_TOTAL: tissue Kidney; for LIVER: tissue Liver; for ALP / ALT / AST / BUN / CRE / DBIL / GLC / IP / K / PL / RALB / TBIL / TC / TG / TP / gamma-GTP: tissue Plasma

With CC(C)OC(=O)C(C)(C)Oc1ccc(C(=O)c2ccc(Cl)cc2)cc1 [FENOFIBRATE] the Bas (3 h, tissue Blood) was 0.2%, the Eos (3 h, tissue Blood) was 1% and the Fbg (3 h, tissue Blood) was 289.2 mg/dL. For the same compound, the Ht (3 h, tissue Blood) was 41%, the MCHC (3 h, tissue Blood) was 32.3% and the Mono (3 h, tissue Blood) was 3%. It also gave an RBC (3 h, tissue Blood) of 610 x10_4/ul, a Ret (3 h, tissue Blood) of 9.8% and a KIDNEY_L (3 h) of 0.8 g. It also gave a KIDNEY_R (3 h) of 0.8 g, a KIDNEY_TOTAL (3 h) of 1.6 g and an LIVER (3 h) of 8.2 g. For the same compound, the ALP (3 h) was 1478.6 IU/L, the ALT (3 h) was 46.6 IU/L and the AST (3 h) was 79 IU/L. For the same compound, the BUN (3 h) was 9.8 mg/dL, the CRE (3 h) was 0.2 mg/dL and the DBIL (3 h) was 0.012 mg/dL. The GLC (3 h) was 181.2 mg/dL, the IP (3 h) was 10.1 mg/dL and the K (3 h) was 4.3 meq/L. For the same compound, the PL (3 h) was 145.8 mg/dL, the RALB (3 h) was 2.6 g/dL and the TBIL (3 h) was 0.052 mg/dL. The TC (3 h) was 79.6 mg/dL, the TG (3 h) was 46.4 mg/dL and the TP (3 h) was 5.4 g/dL. It also gave a gamma-GTP (3 h) of 1.4 IU/L, a Bas (6 h, tissue Blood) of 0.2% and an Eos (6 h, tissue Blood) of 0.4%. For the same compound, the Fbg (6 h, tissue Blood) was 261.4 mg/dL, the Ht (6 h, tissue Blood) was 39.8% and the MCHC (6 h, tissue Blood) was 32.3%. It also gave a Mono (6 h, tissue Blood) of 2.8%, an RBC (6 h, tissue Blood) of 591.2 x10_4/ul and a Ret (6 h, tissue Blood) of 10.3%. For the same compound, the KIDNEY_L (6 h) was 0.8 g, the KIDNEY_R (6 h) was 0.8 g and the KIDNEY_TOTAL (6 h) was 1.6 g. It also gave an LIVER (6 h) of 7.5 g, an ALT (6 h) of 51.2 IU/L and an AST (6 h) of 85.8 IU/L. For the same compound, the BUN (6 h) was 8.4 mg/dL, the CRE (6 h) was 0.2 mg/dL and the DBIL (6 h) was 0.01 mg/dL. It also gave a GLC (6 h) of 173 mg/dL, an IP (6 h) of 9.8 mg/dL and a K (6 h) of 4.2 meq/L. The PL (6 h) was 130.8 mg/dL, the RALB (6 h) was 2.5 g/dL and the TBIL (6 h) was 0.054 mg/dL. For the same compound, the TC (6 h) was 69.6 mg/dL, the TG (6 h) was 37.2 mg/dL and the TP (6 h) was 5.2 g/dL. It also gave a gamma-GTP (6 h) of 1 IU/L, a Bas (9 h, tissue Blood) of 0% and an Eos (9 h, tissue Blood) of 1%. For the same compound, the Fbg (9 h, tissue Blood) was 292.2 mg/dL, the Ht (9 h, tissue Blood) was 39.2% and the Lym (9 h, tissue Blood) was 69.2%. For the same compound, the MCHC (9 h, tissue Blood) was 32.7%, the Mono (9 h, tissue Blood) was 2.6% and the RBC (9 h, tissue Blood) was 604 x10_4/ul. For the same compound, the Ret (9 h, tissue Blood) was 10.3%, the KIDNEY_L (9 h) was 0.8 g and the KIDNEY_R (9 h) was 0.8 g. It also gave a KIDNEY_TOTAL (9 h) of 1.6 g, an LIVER (9 h) of 7 g and an ALP (9 h) of 1457.4 IU/L. The ALT (9 h) was 45 IU/L, the AST (9 h) was 83.2 IU/L and the BUN (9 h) was 6.8 mg/dL. It also gave a CRE (9 h) of 0.2 mg/dL, a DBIL (9 h) of 0.008 mg/dL and a GLC (9 h) of 159.8 mg/dL. The IP (9 h) was 9.6 mg/dL, the K (9 h) was 3.9 meq/L and the PL (9 h) was 125 mg/dL. It also gave an RALB (9 h) of 2.4 g/dL, a TBIL (9 h) of 0.054 mg/dL and a TC (9 h) of 70.8 mg/dL. The TG (9 h) was 29.2 mg/dL, the TP (9 h) was 5.3 g/dL and the gamma-GTP (9 h) was 1 IU/L. It also gave a Bas (24 h, tissue Blood) of 0.2%, an Eos (24 h, tissue Blood) of 0.8% and a Fbg (24 h, tissue Blood) of 259.6 mg/dL. The Ht (24 h, tissue Blood) was 38.8%, the MCHC (24 h, tissue Blood) was 32.8% and the Mono (24 h, tissue Blood) was 3.2%. The RBC (24 h, tissue Blood) was 582.4 x10_4/ul, the Ret (24 h, tissue Blood) was 8.5% and the KIDNEY_L (24 h) was 0.8 g. It also gave a KIDNEY_R (24 h) of 0.8 g, a KIDNEY_TOTAL (24 h) of 1.7 g and an LIVER (24 h) of 9.8 g. For the same compound, the ALP (24 h) was 1873.8 IU/L, the ALT (24 h) was 46.4 IU/L and the AST (24 h) was 74.4 IU/L. The BUN (24 h) was 13 mg/dL, the CRE (24 h) was 0.2 mg/dL and the DBIL (24 h) was 0.012 mg/dL. For the same compound, the GLC (24 h) was 187.8 mg/dL, the IP (24 h) was 8.9 mg/dL and the K (24 h) was 4.4 meq/L. It also gave a PL (24 h) of 122.6 mg/dL, an RALB (24 h) of 2.5 g/dL and a TBIL (24 h) of 0.04 mg/dL. It also gave a TC (24 h) of 68.6 mg/dL, a TG (24 h) of 36.4 mg/dL and a TP (24 h) of 5.3 g/dL.
